Laboratory results reported in the supplement of paper PMC10307832.

Key:
Experiment in all cases: relative viability (nuclei count vs DMSO), 5 days (fraction); higher = more cells survive
[1] = compound: COc1cc(Nc2ncc(F)c(Nc3ccc4c(n3)NC(=O)C(C)(C)O4)n2)cc(OC)c1OC [R406] + COc1cccc2cc(-c3nc([C@H]4CC[C@H](C(=O)O)CC4)n4ncnc(N)c34)[nH]c12 [OSI-027] (partner 0.5 µM)
Summary of the method: (§1)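 Lung cancer cell lines in 1536-well plates got either a single drug or a fixed anchor-drug dose together with five library-drug doses (not always all listed) in √10 steps, by pin tool, on the day after seeding. Nuclei were counted after 5 days, and relative viability is the treated-to-vehicle ratio of nuclei counts. Values are medians of duplicate plates.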

[2] = compound: COc1cc(Nc2ncc(F)c(Nc3ccc4c(n3)NC(=O)C(C)(C)O4)n2)cc(OC)c1OC [R406] + CS(=O)(=O)N1CCN(Cc2cc3nc(-c4cccc5[nH]ncc45)nc(N4CCOCC4)c3s2)CC1 [Pictilisib] (partner 1 µM)
Summary of the method: as §1

[3] = compound: O=C(/C=C/c1cccnc1)NCCCCC1CCN(C(=O)c2ccccc2)CC1 [Daporinad] + CS(=O)(=O)CCNCc1ccc(-c2ccc3ncnc(Nc4ccc(OCc5cccc(F)c5)c(Cl)c4)c3c2)o1 [Lapatinib] (partner 2 µM)
Summary of the method: as §1

[4] = compound: O=C(/C=C/c1cccnc1)NCCCCC1CCN(C(=O)c2ccccc2)CC1 [Daporinad] + Cc1nc(Nc2ncc(C(=O)Nc3c(C)cccc3Cl)s2)cc(N2CCN(CCO)CC2)n1 [Dasatinib] (partner 0.075 µM)
Summary of the method: as §1

Row | Cell Line | relative viability ([1]; first compound 0.08 µM) | relative viability ([1]; first compound 0.253 µM) | relative viability ([1]; first compound 0.8 µM) | relative viability ([1]; first compound 2.53 µM) | relative viability ([1]; first compound 8 µM) | relative viability ([2]; first compound 0.08 µM) | relative viability ([2]; first compound 0.253 µM) | relative viability ([2]; first compound 0.8 µM) | relative viability ([2]; first compound 2.53 µM) | relative viability ([2]; first compound 8 µM) | relative viability ([3]; first compound 0.0005 µM) | relative viability ([3]; first compound 0.001581 µM) | relative viability ([3]; first compound 0.005 µM) | relative viability ([3]; first compound 0.01581 µM) | relative viability ([4]; first compound 0.0005 µM) | relative viability ([4]; first compound 0.001581 µM) | relative viability ([4]; first compound 0.005 µM) | relative viability ([4]; first compound 0.01581 µM)
1 | NCI-H1395 | 0.592 | 0.73 | 0.754 | 0.429 | 0.424 | 0.643 | 0.668 | 0.678 | 0.581 | 0.378 | 0.885 | 1.12 | 0.977 | 1.23 | 0.361 | 0.464 | 0.419 | 0.422
2 | NCI-H2126 | 0.624 | 0.78 | 0.661 | 0.606 | 0.641 | 0.508 | 0.502 | 0.49 | 0.437 | 0.493 | 0.799 | 0.677 | 0.752 | 0.82 | 0.681 | 0.57 | 0.547 | 0.727
3 | LXF-289 | 0.805 | 0.84 | 0.931 | 0.377 | 0.487 | 0.724 | 0.799 | 0.845 | 0.634 | 0.268 | 0.847 | 0.989 | 0.91 | 0.95 | 0.178 | 0.292 | 0.214 | 0.289
4 | NCI-H2009 | 0.602 | 0.729 | 0.747 | 0.301 | 0.149 | 0.793 | 0.76 | 0.892 | 0.289 | 0.192 | 1.3 | 1.02 | 1.07 | 0.9 | 0.295 | 0.337 | 0.277 | 0.22
5 | SK-MES-1 | 0.588 | 0.649 | 0.714 | 0.341 | 0.13 | 0.34 | 0.325 | 0.333 | 0.234 | 0.195 | 0.464 | 0.484 | 0.51 | 0.471 | 0.417 | 0.474 | 0.315 | 0.437
6 | NCI-H2405 | 0.658 | 0.686 | 0.608 | 0.556 | 0.283 | 0.514 | 0.475 | 0.396 | 0.265 | 0.175 | 1.1 | 1.25 | 1.12 | 0.444 | 0.168 | 0.226 | 0.231 | 0.252
7 | NCI-H1755 | 0.667 | 0.78 | 0.692 | 0.331 | 0.376 | 0.469 | 0.415 | 0.496 | 0.221 | 0.195 | 1 | 1.03 | 1.06 | 1.07 | 0.414 | 0.435 | 0.388 | 0.408
8 | HCC-78 | 0.335 | 0.385 | 0.397 | 0.386 | 0.323 | 0.233 | 0.219 | 0.259 | 0.173 | 0.185 | 0.749 | 0.705 | 0.854 | 1.18 | 0.363 |  | 0.328 | 0.379
9 | LOU-NH91 | 0.728 | 0.714 | 0.651 | 0.448 | 0.429 | 0.524 | 0.526 | 0.46 | 0.405 | 0.414 | 0.767 | 0.788 | 0.932 | 0.952 | 0.544 | 0.497 | 0.654 | 0.745
10 | NCI-H3122 | 0.956 | 1.06 | 1.01 | 0.319 | 0.78 | 0.581 | 0.59 | 0.668 | 0.576 | 0.604 | 1.01 | 1.12 | 1.01 | 1.02 | 0.664 | 0.73 | 0.807 | 0.59
11 | HCC-827 | 0.771 | 0.778 | 0.826 | 0.611 | 0.507 | 0.944 | 0.735 | 1.11 | 0.687 | 0.862 | 0.454 | 0.19 | 0.212 | 0.191 | 0.399 | 0.283 | 0.294 | 0.344
12 | SW 1573 | 0.603 | 0.783 | 0.869 | 0.493 | 0.224 | 0.45 | 0.499 | 0.543 | 0.422 | 0.31 | 1.12 | 0.322 | 1.2 | 0.833 | 0.339 | 0.801 | 0.446 | 0.367
13 | NCI-H1975 | 0.699 | 0.678 | 0.854 | 0.252 | 0.15 | 0.29 | 0.297 | 0.319 | 0.162 | 0.142 | 1.03 | 1 | 0.917 | 0.826 | 0.336 | 0.364 | 0.356 | 0.38
14 | NCI-H1651 | 0.632 | 0.749 | 0.804 | 0.621 | 0.286 | 0.512 | 0.652 | 0.727 | 0.249 | 0.251 | 0.803 | 1.09 | 0.796 | 0.984 | 0.419 | 0.433 | 0.439 | 0.446
15 | NCI-H460 | 0.621 | 0.587 | 1.13 | 0.288 | 0.111 | 0.33 | 0.426 | 0.38 | 0.224 | 0.259 | 0.797 | 1.15 | 1.08 | 1.04 | 0.575 | 0.639 | 0.489 | 0.505
16 | LCLC-97TM1 | 0.461 | 0.586 | 0.618 | 0.221 | 0.215 | 0.174 | 0.172 | 0.218 | 0.133 | 0.148 | 0.813 | 0.795 | 1.2 | 0.797 | 0.77 | 0.89 | 0.865 | 0.844
17 | NCI-H838 | 0.407 | 0.472 | 0.368 | 0.326 | 0.167 | 0.412 | 0.689 | 0.407 | 0.199 | 0.178 | 0.998 | 1.31 | 0.966 | 0.5 | 0.276 | 0.29 | 0.296 | 0.296
